The values that follow come from patent US20110165173A1, “THERAPEUTIC AGENT AND DETECTION REAGENT FOR ARTERIOSCLEROTIC DISEASE WHICH TARGETS FOR SALUSIN” (PROTEINEXPRESS CO., LTD., priority 2007, published 2011).

One assay deals with ACAT activity. The experiment in a line: ACAT activity assay by liposome reconstitution method in human monocyte-derived macrophages. Conditions: 0.6 nM during 7-day culture. In kind it is cell-based. From the text: For ACAT activity assay, the liposome reconstitution method was used. This method involves the use of a system in which the ACAT-1 protein present in the endoplasmic reticulum is reconstituted into liposomes with the use of mixed micelles comprising cholesterol/phosphatidylcholine, thereby achieving a saturated concentration level of cholesterol that can be used as an ACAT-1 substrate [Cheng D et al., J Biol Chem. 1995; 270: 685-695.]. In the case of the conventionally used microsome method, cholesterol that endogenously exists in the endoplasmic reticulum has been used as a substrate. However, in general, the endoplasmic reticulum membrane is poor in cholesterol. Therefore, it is thought that the saturated level of cholesterol capable of serving as an ACAT substrate has not been achieved, resulting in underestimation of ACAT activity. Herein, ACAT activity was assayed by adding another substrate, [^14C]oleoyl-CoA, to a reaction system and assaying the cholesterol [^14C]oleate generated through the ACAT reaction (FIG. 4).
Peripheral blood human monocytes (4×10^6 cells/2 mL) were seeded on 4 to 6 6-cm dishes and cultured for 7 days so as to differentiate into macrophages. At such time, salusin-α or salusin-β was added during culture. […] The protein concentration of the homogenized cell extraction solution was quantitatively assayed by the BCA method (Pierce). […]

Assay [1] deals with ATP-binding cassette transporter A1 (ABCA-1) protein expression. The experiment in a line: ABCA-1 protein expression in human monocyte-derived macrophages (Western blotting). In kind it is cell-based. Conditions: 0, 0.2, 0.4, 0.6, 0.8, or 1.0 nM during 7-day culture. The procedure:
Monocyte-derived macrophages that had been cultured for 7 days were washed with PBS 3 times, followed by solubilization with the addition of 10% SDS (sodium dodecyl sulfate) (100 μL) to each dish. Each cell extraction solution was scooped up with a cell scraper, followed by pulverization with the use of a 1-mL TERUMO syringe and a 23-G injection needle for fragmentation (shearing). The resultant was centrifuged at 15,000 rpm for 3 minutes (Himac CF15D2 high-speed micro refrigerated centrifuge; Hitach, Ltd.). The supernatant protein concentration was assayed by the bicinchoninic acid (BCA) method (Pierce) and used as a cell extraction solution for Western blotting.
For ABCA-1 protein detection, a reaction with an anti-human ABCA-1 antibody was carried out on a transfer membrane at room temperature for 1 hour. For a primary antibody (anti-human ABCA-1 rabbit polyclonal antibody (Funakoshi Corporation)), a stock solution (5 μL) was diluted 1,000-fold with PBS-0.1% Tween 20 (5 mL), and the diluent was used. The transfer membrane was washed with PBS-0.1% Tween 20. Then, a reaction with a secondary antibody (anti-rabbit IgG antibody: anti-rabbit IgG donkey antibody conjugated with horseradish peroxidase (HRP) (GE Healthcare Bio-Science)) was carried out at room temperature for 1 hour. […]
Background: Immunoblotting shows a protein as a band on a membrane.

Take “salusin-α: peptide (SEQ ID NO: 1) comprising 28 amino acid residues, generated by processing from preprosalusin (SGALPPAPAAPRPALRAQRAGPAGPGAK; listed as Homo sapiens)”: the “ACAT activity, percent of that of the control” value in the assay on ACAT activity came out at 50%. The ABCA-1 protein expression entry in assay [1] is “no significant changes”.

As for “salusin-β: peptide (SEQ ID NO: 3) comprising 20 amino acid residues, generated by processing from preprosalusin (AIFIFIRWLLKLGHHGRAPP; listed as Homo sapiens) [reference compound]”, the “ACAT activity relative to control” value in the assay on ACAT activity is reported as 1.8 times. Moreover, in assay [1], the ABCA-1 protein expression entry is given as “no significant changes”.
